Reference: patent US7989466B2, “Methods to inhibit or augment an inflammatory response” (Cambridge Enterprise Limited, priority 1999, dated 2011)
Like-named read-outs stand apart in the source and are kept apart here. Marks after values point to notes of the source that are not given here. Positions of bridges follow the written chain, without caps; N, C: chain ends. Non-standard residues stand in square brackets, D forms with d. Residues, ends and D or L forms follow the SMILES beside them. No end group written: not given here.

What was measured:
[1] = system: MCP-1 induced THP-1 migration; test: THP-1 trans-well migration assay, MCP-1 as chemoattractant; format: cell-based, human; conditions: for % inhibition at 100 μM versus MCP-1, THP-1 migration: agent with the cells, n.s. = no statistically significant inhibition
In short: (§1)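 5×10^4 THP-1 cells with serially diluted peptide in upper chamber, 5 µm filter, recombinant human chemokine 50 ng/ml (5.9 nM) in lower chamber. Incubated 4 h at 37 °C. Migrated cells counted by MTT staining, A595 read against a THP-1 standard curve.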

[2] = system: MIP1α induced THP-1 migration; test: THP-1 trans-well migration assay, MIP1α as chemoattractant; format: cell-based, human; conditions: for % inhibition at 100 μM versus MIP1α, THP-1 migration: n.s. = no statistically significant inhibition
In short: as §1

[3] = target: T1, Duffy Antigen Receptor for Chemokines (DARC) (Homo sapiens, UniProt Q16570); test: DARC binding: competition with 125I-MCP-1 on red blood cells; conditions: for DUFFY SELECTIVITY, peptide 2 family: ka for binding to red blood cells divided by the ka for binding THP-1 cells
T1 sequence (Q16570 1-336): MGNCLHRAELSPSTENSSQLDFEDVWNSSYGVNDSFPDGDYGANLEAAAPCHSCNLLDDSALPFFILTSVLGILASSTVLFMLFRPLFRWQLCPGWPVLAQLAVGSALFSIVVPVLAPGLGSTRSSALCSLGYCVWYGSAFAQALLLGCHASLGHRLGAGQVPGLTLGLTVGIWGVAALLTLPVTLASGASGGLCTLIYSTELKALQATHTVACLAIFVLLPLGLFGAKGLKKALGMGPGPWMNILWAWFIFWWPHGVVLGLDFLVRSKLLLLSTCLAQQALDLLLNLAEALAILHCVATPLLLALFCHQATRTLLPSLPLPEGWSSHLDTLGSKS

[4] = system: TGFβ1 induced THP-1 migration; test: THP-1 trans-well migration assay, TGFβ1 as non-chemokine control; format: cell-based, human; conditions: for ED50 versus TGFβ1, inhibition of THP-1 migration: n.s. = no statistically significant inhibition (p > 0.05); for % inhibition at 100 μM versus TGFβ1, THP-1 migration: n.s. = no statistically significant inhibition
Description: Any method suitable for counting cells can be used, for example, counting with a hemocytometer, incubation of the cells with MTT (see above), or FACS analysis. A negative control assay is also performed, using TGF-β or another non-chemokine chemoattractant (e.g., IL1β or TNFα). To assess whether the agent is cytotoxic, the same concentrations of agent are incubated with THP-1 cells. Agents which 1) are not cytotoxic at levels which inhibit migration, 2) are ineffective at inhibiting the negative control-induced migration, and 3) reduce or inhibit chemokine-induced THP-1 migration, are agents which fall within the scope of the invention.
Chemotaxis was induced in a 96-well disposable chemotaxis chamber fitted with a […] polycarbonate filter (PVP free, ChemoTX, Neuroprobe Inc., Cabin John). […] The framed filter was aligned with the holes in the corner of the filter frame and placed over the wells. […] Peptides were dissolved in Milli Q water and then serially diluted in culture medium. In most cases, the serially diluted peptides were added to the upper compartment of the chemotaxis chamber. The chamber was incubated at 37° C. in a humidified atmosphere of 5% CO2 for 4 hours.
After incubation, the cells were gently removed from the top of the filter with a pipette, 20 μl of 20 mM EDTA in PBS was added into each top well, and the mixture was incubated for 20 minutes at 4° C. The filter was then carefully flushed with media using a gentle flow, and removed. […] The curve was based on a two-fold dilution series of THP-1 cells (top standard 100,000 cells in 29 μl). […] The media was carefully aspirated from each well, and the converted dye was solubilized by 20 μl of DMSO.

[5] = n.s. = no statistically significant inhibition (p > 0.05)
[6] = ns = not significantly different from control

**Q.** How did the IC50 ([1]; read-out: MCP-1 inhibitory activity in the THP-1 transwell assay) turn out when CC[C@@H](C)[C@H]1NC(=O)[C@@H](CCC(N)=O)NC(=O)[C@H](N)CSSC[C@H](C(N)=O)NC(=O)[C@@H](CC(C)C)NC(=O)[C@@H](CC(=O)O)NC(=O)[C@H]2CCCN2C(=O)[C@@H](CCCCN)NC(=O)[C@@H](CCC(N)=O)NC(=O)[C@@H](CCCCN)NC(=O)[C@@H](Cc2c[nH]c3ccccc23)NC1=O (H-[dC][dQ][dI][dW][dK][dQ][dK][dP][dD][dL][dC]-NH2; disulfide 1-11; N-terminus assumed) was run?
**A.** 0.005 to 0.1 µM

**Q.** And the “shift of the MIP-1α dose response curve to higher concentrations” value ([2]; sub-maximal dose of inhibitor in the upper chamber)?
**A.** 5-100 fold

**Q.** And the Kd [3]?
**A.** 90 µM

**Q.** How did the EC50 ([1]; listed as NR58.4 (A-I), read-out: ED50 versus MCP-1 induced chemotaxis of THP-1) turn out when C=CCCCCCCCCC(=O)N[C@H]1CCC(=O)NC1=O [A-I (NR58.4), [3S]-3-(undec-10-enoylamino)piperidine-2,6-dione] was run?
**A.** 0.002 µM

**Q.** And the EC50 ([2]; Homo sapiens, THP-1, read-out: ED50, MIP1α chemotaxis assay)?
**A.** 0.0002 µM

**Q.** With NCCCC[C@H](NC(=O)[C@H](CCC(N)=O)NC(=O)[C@@H](N)CCCCN)C(=O)O [KQK] as the compound, how does the “percentage inhibition of migration induced by MCP-1” value ([1]; tripeptide at 100 μM, mean ± range of two experiments, dash = no statistically significant reduction in migration) read?
**A.** 95 ± 8^b %

**Q.** What about the “ED50 versus MIP1α, inhibition of THP-1 migration” value [2, 5] of the same compound?
**A.** n.s.

**Q.** And the “ED50 versus TGFβ1, inhibition of THP-1 migration” value (“ED50 versus TGFβ1, inhibition” below) [4]?
**A.** n.s.

**Q.** Which “% inhibition at 100 μM versus MCP-1, THP-1 migration” value ([1]; 100 μM) does the source give for EICADPKQKWVQ [peptide 3(1-12)[MCP-1]] here?
**A.** > 99%

**Q.** What about the “% inhibition at 100 μM versus MCP-1, THP-1 migration” value ([1]; 100 μM, listed as Peptide 3 (SEQ ID NO: 1)) of the same compound?
**A.** 112%

**Q.** What about the “% inhibition of MCP-1 induced migration at 100 μM, peptide with the chemokine in the lower compartment” value ([1]; 100 μM, lower compartment) of the same compound?
**A.** 17%

**Q.** And the EC50 ([1]; agent with the cells in the upper compartment, n.s. = no statistically significant inhibition (p > 0.05), read-out: ED50 versus MCP-1, inhibition of THP-1 migration)?
**A.** 8 ± 1 µM

**Q.** What about the “% inhibition at 100 μM versus MIP1α, THP-1 migration” value [2] of the same compound?
**A.** 99%

**Q.** What about the EC50 ([2]; n.s. = no statistically significant inhibition (p > 0.05), read-out: ED50 versus MIP1α, inhibition of THP-1 migration) of the same compound?
**A.** 8 ± 1 µM

**Q.** What about the “% inhibition at 100 μM versus TGFβ1, THP-1 migration” value [4] of the same compound?
**A.** n.s.

**Q.** What about the “ED50 versus TGFβ1, inhibition” value [4] of the same compound?
**A.** n.s.

**Q.** What about the “DUFFY SELECTIVITY (DARC specificity ratio)” value ([3]; estimated ka for binding to red blood cells divided by average inhibitory ED50 versus each of the chemokines) of the same compound?
**A.** 1.0

**Q.** Which “% inhibition at 100 μM versus MCP-1, THP-1 migration” value ([1]; 100 μM, listed as Peptide 2 (SEQ ID NO: 3)) does the source give for “SYRRITSSKCPKEAV [peptide 2(1-15)[MCP-1]]” here?
**A.** n.s.

**Q.** What about the “% inhibition at 100 μM versus MCP-1, THP-1 migration” value ([1]; 100 μM, listed as Peptide 2[MCP-1]) of the same compound?
**A.** 19%

**Q.** And the “ED50 versus MCP-1, inhibition of THP-1 migration” value ([1]; agent with the cells in the upper compartment, n.s. = no statistically significant inhibition (p > 0.05))?
**A.** n.s.

**Q.** And the “MCP-1 ED-50” value [1, 6]?
**A.** ns

**Q.** What about the “% inhibition at 100 μM versus MIP1α, THP-1 migration” value [2] of the same compound?
**A.** n.s.

**Q.** And the “ED50 versus MIP1α, inhibition of THP-1 migration” value [2, 5]?
**A.** n.s.

**Q.** And the “MIPIa ED-50” value [2, 6]?
**A.** ns

**Q.** And the “% inhibition at 100 μM versus TGFβ1, THP-1 migration” value [4]?
**A.** n.s.

**Q.** And the “ED50 versus TGFβ1, inhibition” value [4]?
**A.** n.s.

**Q.** What about the Kd ([3]; association (affinity) constant for DARC, red blood cells) of the same compound?
**A.** 100 µM

**Q.** And the Kd ([3]; association constant / affinity for DARC, red blood cells)?
**A.** < 0.5 µM

**Q.** And the “DUFFY SELECTIVITY, peptide 2 family” value [3]?
**A.** 0.1-0.2

**Q.** And the “DUFFY SELECTIVITY, peptide 2 family” value ([3]; listed as Pep2[MCP1])?
**A.** 0.18^d
